Assay results as given in patent US6521647B2, “Treatment of renal disorders” (Pfizer Inc., priority 2000, dated 2003).

Key:
[1] = system: cats with chronic renal failure; assay: GFR from plasma clearance of iohexol in client-owned normotensive cats with spontaneous chronic renal failure (Experiment 2); type: in vivo, cat
Text: The data in the Table below were collected from client-owned, pet cats that had been diagnosed with spontaneous chronic renal failure (chronic renal insufficiency). These cats were presented by owners/clients to veterinary practices for evaluation of general health, kidney function, and systolic blood pressure.
Chronic renal failure is generally considered an irreversible and progressive disease in cats. […] Cats were considered normotensive as defined by systolic arterial blood pressure less than 160 mm Hg prior to the onset of treatment.
Renal function was assessed by determining glomerular filtration rate (GFR). GFR was estimated from plasma clearance of the exogenous marker, iohexol, approximately 7 days prior to the onset of treatment (day—7) and on approximately days 28, 56, 112, and 224 following onset of treatment.

[2] = system: normotensive nephrectomised cats with chronic renal failure; assay: GFR in normotensive nephrectomised cats with chronic renal failure (Example 1); type: in vivo, cat; settings: amlodipine besylate once daily at 0.125 mg/kg; after 35 days; no change in placebo group
Protocol: In this experiment, comparative groups of normotensive nephrectomised cats with chronic renal failure had their GFR measured. […] After 35 days the GFR was measured again. There was no change in the placebo group, but the GFR had increased by an average of ca. 28% for the amlodipine-treated group.

SMILES: CCOC(=O)C1=C(COCCN)NC(C)=C(C(=O)OC)C1c1ccccc1Cl (stereo not drawn) [Amlodipine, amlodipine besylate]
- GFR increase on average between day −7 and day 224 ([1]; 0.125 to 0.25 mg/kg once daily oral, placebo declined 17%): 9%
- effect on decline in renal function (in words) ([1]; 0.125 to 0.25 mg/kg/day orally): prevents the decline in function associated with the progression of chronic renal failure in cats
- increase in GFR (average) [2]: ca. 28%
